Assay results: PubChem BioAssay (NCI)
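Protocol summary: plate cells (96-well), add compound at 5 concentrations, incubate 48 h, interpolate endpoints linearly. TGI: total growth inhibition.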

How the values were obtained:
Assay in all cases: inhibition of tumour cell growth, NCI panel, 48 h
A549 NSCLC = system: A549 NSCLC
BT-549 breast = system: BT-549 breast
COLO 205 colon = system: COLO 205 colon
HOP-62 NSCLC = system: HOP-62 NSCLC
KM12 colon = system: KM12 colon
LOX IMVI melanoma = system: LOX IMVI melanoma
MALME-3M melanoma = system: MALME-3M melanoma
MDA-N = system: MDA-N
NCI-H226 lung = system: NCI-H226 lung
NCI-H522 lung = system: NCI-H522 lung
PC-3 prostate = system: PC-3 prostate
RXF 393 renal = system: RXF 393 renal
SK-OV-3 ovarian = system: SK-OV-3 ovarian
SN12C renal = system: SN12C renal
SW-620 colon = system: SW-620 colon

| SMILES | TGI (A549 NSCLC) [µM] | TGI (BT-549 breast) [µM] | TGI (COLO 205 colon) [µM] | TGI (HOP-62 NSCLC) [µM] | TGI (KM12 colon) [µM] | TGI (LOX IMVI melanoma) [µM] | TGI (MALME-3M melanoma) [µM] | TGI (MDA-N) [µM] | TGI (NCI-H226 lung) [µM] | TGI (NCI-H522 lung) [µM] | TGI (PC-3 prostate) [µM] | TGI (RXF 393 renal) [µM] | TGI (SK-OV-3 ovarian) [µM] | TGI (SN12C renal) [µM] | TGI (SW-620 colon) [µM] |
| --- | --- | --- | --- | --- | --- | --- | --- | --- | --- | --- | --- | --- | --- | --- | --- |
| CC(=O)NNc1nc(C)c(C(/C=C/c2ccc([N+](=O)[O-])cc2)=N/NC(N)=O)s1 | > 100 | > 100 | > 100 | > 100 | > 100 | > 100 | > 100 | > 100 | > 100 | > 100 | > 100 | > 100 | > 100 | > 100 | > 100 |
| N#CCCN(CCC#N)c1ccc(/C=C2\SC(=S)NC2=O)cc1 | > 100 | 84.3 | > 100 | > 100 | > 100 | > 100 | > 100 | > 100 | > 100 | > 100 | > 100 | > 100 | > 100 | > 100 | > 100 |
| N/C(=N\S(=O)(=O)c1ccc(-c2ccccn2)s1)Nc1ccc(Cl)cc1 | 47.2 | 32.6 | 35.9 | 39.2 | 70.4 | 33.5 | 33.4 | 19.6 | 35.8 | 24.4 | 27.3 | 35.3 | 47.9 | 30.3 | 45.1 |
| CCCCOc1c(C(=O)O)cc(Br)cc1C(=O)O | > 100 | > 100 | > 100 | > 100 | > 100 | > 100 | > 100 | > 100 | > 100 | > 100 | > 100 | > 100 | > 100 | > 100 | > 100 |
| c1ccc(C(c2cccc3c2ccc2ccccc23)C(c2ccccc2)c2cccc3c2ccc2ccccc23)cc1 (stereo not given) | > 100 | > 100 | > 100 | > 100 | > 100 | > 100 | > 100 | > 100 | > 100 | > 100 | > 100 | > 100 | > 100 | > 100 | > 100 |
| CCOC(=O)C1(C#N)C2(C#N)C(N)=NC(ON=C(C)C)(ON=C(C)C)C12C#N (stereo not given) | > 100 | > 100 | > 100 | > 100 | > 100 | > 100 | > 100 | > 100 | > 100 | > 100 | > 100 | > 100 | > 100 | > 100 | > 100 |
| O=C(NNS(=O)(=O)c1ccc(Br)cc1)c1ccc(Cl)cc1NC(=O)C12CC3CC(CC(C3)C1)C2 | 21.4 | 34.8 | 24.5 | 47.8 | 85.7 | 28.4 | 35.3 | 32.2 | 35.6 | 25.1 | 38.6 | 31.6 | 30.3 | 36.1 | 41.4 |
| CC(=O)OC12CC(C(F)(F)F)(C(F)(F)F)OC1(OC(C)=O)CC(C(F)(F)F)(C(F)(F)F)O2 (stereo not given) | 5.6 | > 100 | 25.6 | > 100 | 11.5 | 34.9 | > 100 | > 100 | > 100 | > 100 | > 100 | 77.7 | 79.8 | > 100 | > 100 |
| COc1cc(S(=O)(=O)Nc2ccc(-c3csc(N4C(=O)C(Cl)C4c4cccc(Oc5ccccc5)c4)n3)cc2)ccc1Cl (stereo not given) | > 100 | 81.5 | 45.5 | > 100 | 73.9 | 4.89 | > 100 | 64.7 | 39.8 | 3.22 | 30.8 | 15.6 | > 100 | 30.2 | > 100 |
| NC(=S)Nc1ccc2c(c1)oc1ccccc12 | > 100 | > 100 | > 100 | > 100 | > 100 | > 100 | > 100 | > 100 | > 100 | > 100 | > 100 | > 100 | > 100 | > 100 | > 100 |
